Source: ChEMBL document CHEMBL5370614, “Antimalarial Lanostane Dimers from Artificially Cultivated Fruiting Bodies of Ganoderma weberianum” (J Nat Prod, 2023)

Experiments:
[1] = test system: Plasmodium falciparum; assay: Antimalarial activity against multi-drug resistant Plasmodium falciparum K1 infected in human erythrocytes assessed as parasite growth inhibition incubated for 24 hrs by [G-3H]hypoxanthine uptake assay; format: functional, organism-based; conditions: K1, Erythrocyte
[2] = Cytotoxicity against African green monkey Vero cells assessed as cell growth inhibition by GFP fluorescence based assay; format: toxicity; conditions: African green monkey (Chlorocebus sabaeus)

SMILES | IC50 [1] | IC50 [2]
C[C@H](CC[C@@H](O)[C@@](C)(O)CO)[C@H]1CC[C@@]2(C)C3=CC[C@H]4C(C)(C)C(=O)CC[C@]4(C)C3=CC[C@]12C | > 21 µM | > 106 µM
C[C@H](CC[C@@H](OC(=O)[C@@H](C)CC(=O)C[C@@H](C)[C@H]1C[C@@H](O)[C@@]2(C)C3=C(C(=O)C[C@]12C)[C@@]1(C)CC[C@@H](O)C(C)(C)[C@@H]1CC3=O)[C@@](C)(O)CO)[C@H]1CC[C@@]2(C)C3=C(CC[C@]12C)[C@@]1(C)CCC(=O)C(C)(C)[C@@H]1C[C@H]3O | 0.67 µM | 17 µM
C[C@H](CC(=O)C[C@@H](C)[C@H]1C[C@@H](O)[C@@]2(C)C3=C(C(=O)C[C@]12C)[C@@]1(C)CCC(=O)C(C)(C)[C@@H]1CC3=O)C(=O)O[C@H](CC[C@@H](C)[C@H]1CC[C@@]2(C)C3=CC[C@H]4C(C)(C)C(=O)CC[C@]4(C)C3=CC[C@]12C)[C@@](C)(O)CO | 2.33 µM | 9 µM
C.C[C@H](CC[C@@H](OC(=O)[C@@H](C)CC(=O)C[C@@H](C)[C@H]1C[C@@H](O)[C@@]2(C)C3=C(C(=O)C[C@]12C)[C@@]1(C)CC[C@@H](O)C(C)(C)[C@@H]1CC3=O)[C@@](C)(O)CO)[C@H]1CC[C@@]2(C)C3=CC[C@H]4C(C)(C)C(=O)CC[C@]4(C)C3=CC[C@]12C | 1.3 µM | 9.2 µM
C[C@H](CC(=O)C[C@H](C)C(=O)O)[C@H]1C[C@H](O)[C@@]2(C)C3=C(C(=O)C[C@]12C)[C@@]1(C)CCC(=O)C(C)(C)[C@@H]1C[C@H]3O | 19 µM | > 97 µM
C[C@H](CC(=O)C[C@H](C)C(=O)O)[C@H]1C[C@H](O)[C@@]2(C)C3=C(C(=O)C[C@]12C)[C@@]1(C)CC[C@@H](O)C(C)(C)[C@@H]1CC3=O | > 19 µM | > 97 µM
C[C@H](CC(=O)C[C@H](C)C(=O)O[C@@H](CC[C@@H](C)[C@H]1C[C@H](O)[C@@]2(C)C3=C(CC[C@]12C)[C@@]1(C)CCC(=O)C(C)(C)[C@@H]1CC3)[C@](C)(O)CO)[C@H]1C[C@@H](O)[C@@]2(C)C3=C(C(=O)C[C@]12C)[C@@]1(C)CC[C@@H](O)C(C)(C)[C@@H]1CC3=O | 0.23 µM | 13 µM
C[C@H](CC[C@H](O)[C@](C)(O)COC(=O)[C@@H](C)CC(=O)C[C@@H](C)[C@H]1C[C@@H](O)[C@@]2(C)C3=C(C(=O)C[C@]12C)[C@@]1(C)CC[C@@H](O)C(C)(C)[C@@H]1CC3=O)[C@H]1CC[C@@]2(C)C3=CC[C@H]4C(C)(C)C(=O)CC[C@]4(C)C3=CC[C@]12C | 3.3 µM | 24 µM
C[C@H](CC(=O)C[C@H](C)C(=O)O)[C@H]1C[C@H](O)[C@@]2(C)C3=C(C(=O)C[C@]12C)[C@@]1(C)CC[C@@H](O)C(C)(C)[C@@H]1CC3 | > 20 µM | > 100 µM
C[C@H](CC[C@@H](O)[C@@](C)(O)COC(=O)[C@@H](C)CC(=O)C[C@@H](C)[C@H]1C[C@@H](O)[C@@]2(C)C3=C(C(=O)C[C@]12C)[C@@]1(C)CCC(=O)C(C)(C)[C@@H]1CC3=O)[C@H]1CC[C@@]2(C)C3=CC[C@H]4C(C)(C)C(=O)CC[C@]4(C)C3=CC[C@]12C | 1.09 µM | > 52 µM
C[C@H](CC(=O)C[C@H](C)C(=O)OC[C@@](C)(O)[C@@H](O)CC[C@@H](C)[C@H]1C[C@H](O)[C@@]2(C)C3=C(CC[C@]12C)[C@@]1(C)CCC(=O)C(C)(C)[C@@H]1CC3)[C@H]1C[C@@H](O)[C@@]2(C)C3=C(C(=O)C[C@]12C)[C@@]1(C)CCC(=O)C(C)(C)[C@@H]1CC3=O | 0.035 µM | 19 µM
C[C@H](CC[C@H](O)[C@](C)(O)COC(=O)[C@@H](C)CC(=O)C[C@@H](C)[C@H]1C[C@@H](O)[C@@]2(C)C3=C(C(=O)C[C@]12C)[C@@]1(C)CCC(=O)C(C)(C)[C@@H]1CC3=O)[C@H]1CC[C@@]2(C)C3=CC[C@H]4C(C)(C)C(=O)CC[C@]4(C)C3=CC[C@]12C | 0.77 µM | > 52 µM
C[C@H](CC(=O)C[C@H](C)C(=O)O)[C@H]1C[C@H](O)[C@@]2(C)C3=C(C(=O)C[C@]12C)[C@@]1(C)CCC(=O)C(C)(C)[C@@H]1CC3=O | > 19 µM | > 97 µM
C[C@H](CC(=O)C[C@H](C)C(=O)O[C@@H](CC[C@@H](C)[C@H]1C[C@H](O)[C@@]2(C)C3=C(CC[C@]12C)[C@@]1(C)CCC(=O)C(C)(C)[C@@H]1CC3)[C@](C)(O)CO)[C@H]1C[C@@H](O)[C@@]2(C)C3=C(C(=O)C[C@]12C)[C@@]1(C)CCC(=O)C(C)(C)[C@@H]1CC3=O | 0.057 µM | 8.1 µM
C[C@H](CC(=O)C[C@H](C)C(=O)O)[C@H]1C[C@H](O)[C@@]2(C)C3=C(C(=O)C[C@]12C)[C@@]1(C)CCC(=O)C(C)(C)[C@@H]1CC3 | > 20 µM | > 100 µM
C[C@H](CC[C@H](OC(=O)[C@@H](C)CC(=O)C[C@@H](C)[C@H]1C[C@@H](O)[C@@]2(C)C3=C(C(=O)C[C@]12C)[C@@]1(C)CC[C@@H](O)C(C)(C)[C@@H]1CC3=O)[C@](C)(O)CO)[C@H]1CC[C@@]2(C)C3=C(CC[C@]12C)[C@@]1(C)CCC(=O)C(C)(C)[C@@H]1C[C@H]3O | 0.39 µM | 2.3 µM
C[C@H]1[C@@H](O)O[C@@H]2O[C@@]3(C)CC[C@H]4[C@H](C)CC[C@@H]1[C@@]24OO3 [ARTENIMOL] | 0.002 µM | –
Cc1c2ccncc2c(C)c2c1[nH]c1ccccc12 [ELLIPTECINE] | – | 2.9 µM
C[C@H](CC[C@H](O)[C@](C)(O)CO)[C@H]1CC[C@@]2(C)C3=CC[C@H]4C(C)(C)C(=O)CC[C@]4(C)C3=CC[C@]12C [GANODERMANONTRIOL] | > 21 µM | > 106 µM
